Key:
[1] = target: T1, Schizosaccharomyces pombe PNKP (Schizosaccharomyces pombe, UniProt O13911); assay: PiColorLock 3'-phosphatase assay, fission yeast PNKP; format: biochemical; conditions: read-out: inhibition of S. pombe PNKP
T1 construct: made in house
T1 sequence (O13911 1-408): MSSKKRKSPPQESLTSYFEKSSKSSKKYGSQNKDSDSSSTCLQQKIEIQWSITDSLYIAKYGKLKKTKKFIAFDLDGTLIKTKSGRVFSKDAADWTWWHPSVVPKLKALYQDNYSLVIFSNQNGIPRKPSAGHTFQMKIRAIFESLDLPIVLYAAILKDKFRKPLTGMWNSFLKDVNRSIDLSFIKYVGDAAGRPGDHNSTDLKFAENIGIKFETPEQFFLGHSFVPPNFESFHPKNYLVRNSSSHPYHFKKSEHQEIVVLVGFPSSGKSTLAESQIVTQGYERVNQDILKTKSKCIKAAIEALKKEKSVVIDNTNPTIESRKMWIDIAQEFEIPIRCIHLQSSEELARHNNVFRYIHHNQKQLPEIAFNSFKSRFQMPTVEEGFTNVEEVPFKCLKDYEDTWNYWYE
Text: (§1) To determine the specificity of A12B4C3 for human PNKP phosphatase activity, a number of closely related phosphatases such as the PNKP enzymes isolated from bacteriophage T4, Schizosaccharomyces pombe and mouse, as well as aprataxin, were examined.

[2] = target: T2, hPNKP 3'-phosphatase activity (Homo sapiens, UniProt Q96T60); assay: Conventional radio-gel assay for hPNKP 3'-phosphatase activity; format: biochemical
T2 construct: made in house; host or cells: bacteria (said only for the batch compared with aprataxin)

[3] = system: MDA-MB-231 cells; assay: Cell proliferation (MTS) assay, compound alone; format: cell-based, human; conditions: 72 hours
Protocol: (§2) To determine the effect of the inhibition of PNKP by small molecule inhibitors on cell proliferation we used the CellTiter 96™ AQueous Non-Radioactive Cell Proliferation Assay (Promega, Madison Wis.), better known as the MTS assay. Approximately 2.5×10^3 A549 cells were plated in triplicate in a 96-well plate with different concentration of A12B4C3. After 72 hours, 20 μl of CellTiter 96 Aqueous One Solution Reagent was added to each well and cells were incubated for 4 more hours at 37° C. The absorbance recorded at 490 nm was used as the number of living cells in culture (FLUOstar Optima, BMG Labtechnologies).
(§3) A12B4C3 was first tested for inherent toxicity. Cytotoxicity was measured by cell proliferation assay after exposure of A549 human lung adenocarcinoma cells and MDA-MB-231 cells to different doses of the compound for 72 hours (FIG. 6A). A dose-dependent reduction in cell proliferation up to 50% at 100 μM A12B4C3 was observed. […] While not wishing to be bound by theory, this may be indicative of a maximal level of drug uptake. No effect on cell proliferation was detected after exposure to 1 μM A12B4C3.

[4] = system: A549 cells; assay: Cell proliferation (MTS) assay, compound alone; format: cell-based, human; conditions: 72 hours
Protocol: as §2, §3

[5] = target: T3, Phage T4 polynucleotide kinase (T4 PNK) (Enterobacteria phage T4, UniProt P06855); assay: PiColorLock 3'-phosphatase assay, phage T4 PNK; format: biochemical, bacteriophage T4
T3 construct: purchased Roche Diagnostics (Indianapolis, Ind.)
T3 sequence (P06855 whole entry): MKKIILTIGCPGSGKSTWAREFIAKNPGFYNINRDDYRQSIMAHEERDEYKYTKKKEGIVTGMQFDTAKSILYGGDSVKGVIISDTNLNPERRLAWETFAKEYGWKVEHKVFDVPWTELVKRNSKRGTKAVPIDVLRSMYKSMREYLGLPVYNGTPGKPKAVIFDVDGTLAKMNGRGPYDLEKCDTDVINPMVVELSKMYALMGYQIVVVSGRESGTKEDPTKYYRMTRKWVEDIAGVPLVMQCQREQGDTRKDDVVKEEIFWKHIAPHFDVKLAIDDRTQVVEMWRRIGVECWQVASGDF
Text: as §1

[6] = Clonogenic survival assay, compound alone; format: cell-based; conditions: 1 μM, exposure up to 24 hours (data not shown)
Protocol: The effect of hPNKP inhibition by A12B4C3 on cellular survival following exposure to ionizing radiation was measured in A549, A549δPNKP and MDA-MB-231 and MDA-MB-231δPNKP cells by clonogenic assays. Cells were seeded on 60-mm tissue culture plates at various concentrations to give between about 100-1000 colonies per plate and returned to the incubator overnight to allow the cells to attach. For radiosensitization studies, the cells were incubated with or without 1 μM A12B4C3 for 2 hours before irradiation and then exposed to increasing doses of γ-radiation (^60Co Gammacell; Atomic Energy of Canada Limited, Ottawa). After irradiation, cells were incubated for a further 24 hours in the same media and then washed twice with phosphate-buffered saline (PBS) and incubated in fresh media without the inhibitor. Colonies were stained with crystal violet after 10 to 14 days and counted with an automated Colcount colony counter (Oxford Optronix, Oxford, UK).
A12B4C3 was first tested for inherent toxicity. Cytotoxicity was measured by cell proliferation assay after exposure of A549 human lung adenocarcinoma cells and MDA-MB-231 cells to different doses of the compound for 72 hours (FIG. 6A). A dose-dependent reduction in cell proliferation up to 50% at 100 μM A12B4C3 was observed. […] No effect on cell proliferation was detected after exposure to 1 μM A12B4C3.

[7] = system: A549 cells; assay: Chemosensitization to camptothecin, clonogenic survival assay; format: cell-based, human; conditions: 1 mM A12B4C3 2 hours before camptothecin, further 24 hours, wild type A549
Protocol: The effect of hPNKP inhibition by A12B4C3 on cellular survival following exposure to the topoisomerase I poison, camptothecin, was measured in A549 and A549δPNKP cells by the clonogenic survival assay (colony forming assay). Cells were seeded on 60-mm tissue culture plates at various concentrations to give between about 100-1000 colonies per plate and returned to the incubator overnight to allow the cells to attach. For chemosensitization studies, the cells were incubated with or without 1 mM A12B4C3 for 2 hours before addition of camptothecin and then exposed to increasing doses of camptothecin (Sigma). After addition of the topoisomerase I poison, cells were incubated for a further 24 hours in the same media and then washed twice with phosphate-buffered saline (PBS) and incubated in fresh media without the inhibitor. Colonies were stained with crystal violet after 10 to 14 days and counted with an automated Colcount colony counter (Oxford Optronix, Oxford, UK).
The capacity of A12B4C3 to act as a chemosensitizer was then examined. […] Colonies were stained with crystal violet after 10 to 14 days and counted with an automated Colcount colony counter (Oxford Optronix, Oxford, UK).

CCCCCCCCCCC(O)C1C=CC2C(=O)N(c3ccccc3)C(=O)C2N1Nc1ccc([N+](=O)[O-])cc1 (stereo not shown) [Compound A12B4C3, 2-(1-hydroxyundecyl)-1-(4-nitrophenylamino)-6-phenyl-6,7a-dihydro-1H-pyrrolo[3,4-b]pyridine-5,7(2H,4aH)-dione]
inhibition at 50 µM [1]: ~20% | inhibition of hPNKP phosphatase activity, radio-gel assay [2]: inhibited | effect on cell proliferation ([3]; 1 μM): No effect | reduction in cell proliferation ([3]; 100 μM): up to 50% | effect on cell proliferation ([4]; 1 μM): No effect | reduction in cell proliferation ([4]; 100 μM): up to 50% | inhibition of phage T4 PNKP ([5]; 50 μM): failed to inhibit | inhibition at 50 µM ([5]; read-out: inhibition of phage T4 PNKP): ~12.5% | cytotoxicity by clonogenic survival assay [6]: lack of cytotoxicity | chemosensitization to camptothecin [7]: effectively sensitized

— US9694073B2, “Small molecule inhibitors of polynucleotide kinase/phosphatase, poly(ADP-ribose) polymerase and uses thereof” (THE GOVERNORS OF THE UNIVERSITY OF ALBERTA, priority 2009, dated 2017)
